In PubChem BioAssay AID248 (DTP/NCI, 2004):
Several values for one entry are separate records, joined by “and”; a condition that tells them apart may be missing. Equal entries are not always repeated. Toxic doses and inconclusive results are not listed. Rule as the data show it: active = T/C of 150% or more; inactive = T/C below 125%.

System: L1210 leukemia ip in BDF1 mice, survival T/C
Assay: NCI In Vivo Anticancer Drug Screen. Data for tumor model L1210 Leukemia (intraperitoneal) in B6D2F1 (BDF1) mice
Details: endpoint: mean survival time, higher = longer survival
Summary of the method: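 Antitumor effect is assessed in tumor-bearing animals. Survival in the compound arm is compared with a vehicle-dosed control arm and expressed as their quotient.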

[1] = dose: 100.0 mg/kg/injection, schedule: Q01DX001 (ip), vehicle: carboxymethylcellulose (CMC)
[2] = dose: 200.0 mg/kg/injection, schedule: Q01DX001 (ip), vehicle: carboxymethylcellulose (CMC)
[3] = dose: 400.0 mg/kg/injection, schedule: Q01DX001 (ip), vehicle: carboxymethylcellulose (CMC)
[4] = dose: 100.0 mg/kg/injection, schedule: Q01DX001 (ip), vehicle: saline
[5] = dose: 100.0 mg/kg/injection, schedule: Q04DX003 (ip), vehicle: Klucel (hydroxypropylcellulose) (HPC)
[6] = dose: 200.0 mg/kg/injection, schedule: Q01DX001 (ip), vehicle: saline
[7] = dose: 200.0 mg/kg/injection, schedule: Q04DX003 (ip), vehicle: Klucel (hydroxypropylcellulose) (HPC)
[8] = dose: 400.0 mg/kg/injection, schedule: Q01DX001 (ip), vehicle: saline
[9] = dose: 400.0 mg/kg/injection, schedule: Q04DX003 (ip), vehicle: Klucel (hydroxypropylcellulose) (HPC)
[10] = dose: 100.0 mg/kg/injection, schedule: Q04DX002 (ip), vehicle: Klucel (hydroxypropylcellulose) (HPC)
[11] = dose: 200.0 mg/kg/injection, schedule: Q04DX002 (ip), vehicle: Klucel (hydroxypropylcellulose) (HPC)
[12] = dose: 100.0 mg/kg/injection, schedule: Q04DX002 (ip), vehicle: saline with Tween-80
[13] = dose: 200.0 mg/kg/injection, schedule: Q04DX002 (ip), vehicle: saline with Tween-80
[14] = dose: 100.0 mg/kg/injection, schedule: Q01DX009 (ip), vehicle: Klucel (hydroxypropylcellulose) (HPC)
[15] = dose: 200.0 mg/kg/injection, schedule: Q01DX009 (ip), vehicle: Klucel (hydroxypropylcellulose) (HPC)
[16] = dose: 400.0 mg/kg/injection, schedule: Q01DX009 (ip), vehicle: Klucel (hydroxypropylcellulose) (HPC)
[17] = dose: 100.0 mg/kg/injection, schedule: Q01DX009 (ip), vehicle: saline with Tween-80
[18] = dose: 100.0 mg/kg/injection, schedule: Q04DX003 (ip), vehicle: saline with Tween-80
[19] = dose: 200.0 mg/kg/injection, schedule: Q01DX009 (ip), vehicle: saline with Tween-80
[20] = dose: 200.0 mg/kg/injection, schedule: Q04DX003 (ip), vehicle: saline with Tween-80
[21] = dose: 400.0 mg/kg/injection, schedule: Q01DX009 (ip), vehicle: saline with Tween-80
[22] = dose: 400.0 mg/kg/injection, schedule: Q04DX003 (ip), vehicle: saline with Tween-80
[23] = dose: 50.0 mg/kg/injection, schedule: Q01DX009 (ip), vehicle: saline with Tween-80

Measured: T/C

Cc1ccc(NP(N)(=O)Nc2ccc(C)cc2)cc1
inactive: dose: 50.0 mg/kg/injection, schedule: Q01DX001 (ip), vehicle: alcohol 102 % of control | dose: 100.0 mg/kg/injection, schedule: Q01DX001 (ip), vehicle: alcohol 102 % of control | dose: 200.0 mg/kg/injection, schedule: Q01DX001 (ip), vehicle: alcohol 108 % of control | dose: 400.0 mg/kg/injection, schedule: Q01DX001 (ip), vehicle: alcohol 96 % of control

CC(CO)(CO)N=Cc1cc(Br)ccc1O
inactive: [1] 102 % of control | [2] 100 % of control | [3] 86 % of control

Nc1c(Br)c(Cl)cc2c1-c1ccc(Cl)cc1C2S (stereo not given)
inactive: [1] 104 % of control | [2] 95 % of control | [3] 90 % of control

Cc1nsc(N)n1
inactive: dose: 12.5 mg/kg/injection, schedule: Q01DX009 (ip), vehicle: saline 108 % of control | dose: 25.0 mg/kg/injection, schedule: Q01DX009 (ip), vehicle: saline 105 % of control | dose: 50.0 mg/kg/injection, schedule: Q01DX009 (ip), vehicle: saline 100 % of control | [4] 92 % of control | [5] 102 % of control | [6] 100 % of control | [7] 113 % of control | [8] 101 % of control | [9] 104 % of control

Cc1onc(-c2ccccc2Cl)c1-c1nc2ccccc2c(=O)o1
inactive: [10] 93 % of control | [11] 93 % of control | dose: 400.0 mg/kg/injection, schedule: Q04DX002 (ip), vehicle: Klucel (hydroxypropylcellulose) (HPC) 96 % of control

Clc1ccc2c(c1)Sc1ccccc1O2
inactive: [12] 101 % of control | [13] 101 % of control | dose: 400.0 mg/kg/injection, schedule: Q04DX002 (ip), vehicle: saline with Tween-80 97 % of control

CC(Cc1ccc2c(c1)OCO2)C(C)Cc1ccc2c(c1)OCO2 (stereo not given)
inactive: dose: 100.0 mg/kg/injection, schedule: Q01DX009 (ip), vehicle: other 102 % of control | dose: 100.0 mg/kg/injection, schedule: Q04DX003 (ip), vehicle: other 90 % of control | dose: 200.0 mg/kg/injection, schedule: Q01DX009 (ip), vehicle: other 109 % of control | dose: 200.0 mg/kg/injection, schedule: Q04DX003 (ip), vehicle: other 102 % of control | dose: 400.0 mg/kg/injection, schedule: Q01DX009 (ip), vehicle: other 91 % of control | dose: 400.0 mg/kg/injection, schedule: Q04DX003 (ip), vehicle: other 90 % of control

N#CC(C#N)=Cc1cccc([N+](=O)[O-])c1
inactive: dose: 50.0 mg/kg/injection, schedule: Q01DX001 (ip), vehicle: carboxymethylcellulose (CMC) 102 % of control | [1] 102 % of control | [14] 97 % of control | [5] 102 % of control | [9] 106 % of control

Clc1ccc(C2=NC(c3ccccc3)N3C2C3c2ccccc2)cc1 (stereo not given)
inactive: dose: 100.0 mg/kg/injection, schedule: Q01DX001 (ip), vehicle: saline with Tween-80 95 % of control | dose: 200.0 mg/kg/injection, schedule: Q01DX001 (ip), vehicle: saline with Tween-80 89 % of control | dose: 400.0 mg/kg/injection, schedule: Q01DX001 (ip), vehicle: saline with Tween-80 89 % of control

Cc1ccc(Nc2ccc([N+](=O)[O-])cc2[N+](=O)[O-])c(C)c1
inactive: [14] 94 % of control | [5] 96 % of control | [15] 101 % of control | [7] 91 % of control | [16] 103 % of control | [9] 98 % of control

CCC(=O)c1ccc(N2CCCCC2)cc1
inactive: [10] 103 % of control | [11] 89 % of control

O=C1CSCc2nc3ccccc3n21
inactive: [17] 97 % of control | [18] 106 % of control | [19] 100 % of control | [20] 103 % of control | [21] 100 % of control | [22] 97 % of control

C[n+]1ccccc1/C=N/Nc1ccccc1
inactive: dose: 75.0 mg/kg/injection, schedule: Q01DX001 (ip), vehicle: other 96 % of control

CCOC(=O)N1C(=O)C2C3CCC(O3)C2C1=O (stereo not given)
inactive: dose: 25.0 mg/kg/injection, schedule: Q01DX009 (ip), vehicle: saline with Tween-80 107 % of control | [23] 110 % of control

CCCCCSC(=O)C(N)=O
inactive: [17] 102 % of control | [18] 100 % of control | [19] 100 % of control | [20] 109 % of control | [21] 96 % of control | [22] 92 % of control

COc1ccc(OC)c(-c2csc(=O)s2)c1
inactive: dose: 50.0 mg/kg/injection, schedule: Q04DX002 (ip), vehicle: Klucel (hydroxypropylcellulose) (HPC) 97 % of control | [10] 111 % of control

CCCCCCCCCOc1ccc(C=O)cc1OC
inactive: dose: 100.0 mg/kg/injection, schedule: Q01DX001 (ip), vehicle: Klucel (hydroxypropylcellulose) (HPC) 93 % of control | dose: 200.0 mg/kg/injection, schedule: Q01DX001 (ip), vehicle: Klucel (hydroxypropylcellulose) (HPC) 102 % of control | dose: 400.0 mg/kg/injection, schedule: Q01DX001 (ip), vehicle: Klucel (hydroxypropylcellulose) (HPC) 100 % of control

Cc1ccc(Cl)cc1NC(=O)Oc1ccc(C(C)(C)C)cc1Br
inactive: [14] 91 % of control | [15] 100 % of control | [16] 108 % of control

CC1(C)C(=O)Nc2ccccc2N1C(=O)CN1CCCC1
inactive: dose: 9.37 mg/kg/injection, schedule: Q01DX009 (ip), vehicle: acetone 97 % of control | dose: 18.75 mg/kg/injection, schedule: Q01DX009 (ip), vehicle: acetone 88 % of control | dose: 37.5 mg/kg/injection, schedule: Q01DX009 (ip), vehicle: acetone 98 % of control | dose: 37.5 mg/kg/injection, schedule: Q04DX003 (ip), vehicle: saline 100 % of control | dose: 75.0 mg/kg/injection, schedule: Q01DX001 (ip), vehicle: saline 102 % of control | dose: 75.0 mg/kg/injection, schedule: Q04DX003 (ip), vehicle: saline 91 % of control | dose: 150.0 mg/kg/injection, schedule: Q01DX001 (ip), vehicle: saline 109 % of control

c1ccc(NC23CC4CC(CC(C4)C2)C3)cc1
inactive: [23] 102 % of control | [17] 97 % of control | [18] 94 % of control | [19] 88 % of control | [20] 92 % of control | dose: 300.0 mg/kg/injection, schedule: Q01DX009 (ip), vehicle: saline with Tween-80 98 % of control

O=C(Nc1cccc(Cl)c1)Oc1ccc(S(=O)(=O)F)cc1Cl
inactive: [12] 94 % of control | [13] 91 % of control

CC1c2cc(C(=O)O)ccc2OC1(C)C (stereo not given)
inactive: [4] 96 % of control | [6] 102 % of control | [8] 91 % of control

Oc1ccc(/C=N/N2CCOCC2)c(O)c1
inactive: [1] 100 % of control and 110 % of control | dose: 100.0 mg/kg/injection, schedule: Q01DX009 (ip), vehicle: carboxymethylcellulose (CMC) 97 % of control | dose: 100.0 mg/kg/injection, schedule: Q04DX002 (ip), vehicle: carboxymethylcellulose (CMC) 92 % of control and 89 % of control | dose: 100.0 mg/kg/injection, schedule: Q04DX003 (ip), vehicle: carboxymethylcellulose (CMC) 95 % of control and 103 % of control | [2] 98 % of control and 110 % of control | dose: 200.0 mg/kg/injection, schedule: Q01DX009 (ip), vehicle: carboxymethylcellulose (CMC) 95 % of control | dose: 200.0 mg/kg/injection, schedule: Q04DX002 (ip), vehicle: carboxymethylcellulose (CMC) 96 % of control and 103 % of control | dose: 200.0 mg/kg/injection, schedule: Q04DX003 (ip), vehicle: carboxymethylcellulose (CMC) 95 % of control and 90 % of control | [3] 98 % of control and 110 % of control | dose: 400.0 mg/kg/injection, schedule: Q01DX009 (ip), vehicle: carboxymethylcellulose (CMC) 88 % of control | dose: 400.0 mg/kg/injection, schedule: Q04DX002 (ip), vehicle: carboxymethylcellulose (CMC) 95 % of control and 86 % of control | dose: 400.0 mg/kg/injection, schedule: Q04DX003 (ip), vehicle: carboxymethylcellulose (CMC) 95 % of control and 87 % of control
